Data: ChEMBL document CHEMBL1149034, “8-Hydroxymanzamine A, a beta-carboline alkaloid from a sponge, Pachypellina sp” (J Nat Prod, 1994)
In brackets after ≈: the same amount, converted by molar mass. Activity calls are given as the source filed them. The rule behind the calls is not given here.

Assays:
LoVo = assay: Cytotoxicity against human LoVo cells; format: functional, cell-based
Human alphaherpesvirus 2 = assay: Antiviral activity against HSV2; format: functional
KB = assay: Cytotoxicity against human KB cells; format: functional, cell-based
P388 = assay: Cytotoxicity against mouse P388 cells; format: functional, cell-based

Structure (SMILES)	IC50 (LoVo) [µg/mL]	MIC (Human alphaherpesvirus 2) [µg/mL]	IC50 (KB) [µg/mL]	Activity (P388)	IC50 (P388) [µg/mL]
Oc1cccc2c1[nH]c1c(C3=C[C@@]4(O)CC/C=C\CCCCN5CC[C@@H]3[C@]3(CC6/C=C\CCCCN6[C@H]34)C5)nccc12 (stereo partly specified)	0.26 (≈ 0.46 µM)	0.1 (≈ 0.177 µM)	0.3 (≈ 0.531 µM)	inactive	
COc1cccc2c1[nH]c1c(C3=C[C@@]4(O)CC/C=C\CCCCN5CC[C@@H]3[C@]3(C[C@@H]6/C=C\CCCCN6[C@H]34)C5)nccc12 [8-METHOXYMANZAMINE A]	0.1 (≈ 0.173 µM)	0.1 (≈ 0.173 µM)	0.33 (≈ 0.57 µM)		
O[C@]12C=C(c3nccc4c3[nH]c3ccccc34)[C@@H]3CCN(CCCC/C=C\CC1)C[C@@]31C[C@@H]3/C=C\CCCCN3[C@H]12 [MANZAMINE A]	0.15 (≈ 0.273 µM)	0.05 (≈ 0.0911 µM)	0.05 (≈ 0.0911 µM)		0.07 (≈ 0.128 µM)
